Earlier results on two compounds are cited in patent publication US20210059962A1, “STIMULATION OF T REGULATORY CELLS BY CANNABIDIOL AS A MEANS OF TREATING ARTHRITIS AND AUTOIMMUNITY” (priority 2019, published 2021).

With `CCCCCc1cc(O)c2c(c1)OC(C)(C)[C@@H]1CCC(C)=C[C@@H]21` [THC, delta9 tetrahydrocannabinol], in the data set with NK cells (constitutive), the “constitutive production of IL-8” value is reported as “decreased”, the “constitutive production of MIP-lalpha” value is on record as “decreased”, the “constitutive production of MIP-lbeta” value is given as “decreased” and the “constitutive production of RANTES” value is given as “decreased”. Moreover, in the data set on NK cells (phorbol ester stimulated), the “phorbol ester stimulated production of GM-CSF” value is reported as “decreased”, the “phorbol ester stimulated production of IFN-gamma” value is listed as “decreased” and the “phorbol ester stimulated production of TNF-alpha” value is “decreased”. In the data set on B-cells, the IL-8 production entry was “tripled”, the MIP-1alpha production entry is reported as “tripled” and the MIP-1beta production result is “tripled”. The MIP-lbeta production entry with HTLV-1 positive B-cells is recorded as “inhibited”. Also, in the data set with eosinophilic cells, the IL-8 production result is “doubled” and the MIP-lbeta production result was “tripled”. The IL-10 production result with HUT-78 T-cells is recorded as “strongly inhibited”.

In the case of `C=C(C)[C@@H]1CCC(C)=C[C@H]1c1c(O)cc(CCCCC)cc1O` [CBD, 2-[3-methyl-6-(1-methylethenyl)-2-cyclohexen-1-yl]-5-pentyl-1,3-benzenedi-of], the IL-10 production entry with HUT-78 T-cells is given as “strongly inhibited”.
